For orientation: melting point means the temperature of the solid-liquid transition. A word on the IC50: it is the concentration needed to halve the response being measured. A high value points to weaker potency.

Each structure is given as a SMILES string.

For series [1], the target named is T1, porcine kidney aminopeptidase N (APN) (Sus scrofa, UniProt P15145).
T1 construct: purchased Enzo Life Sciences; host or cells: porcine kidney microsomes (tissue-derived)
T1 sequence (P15145 1-963): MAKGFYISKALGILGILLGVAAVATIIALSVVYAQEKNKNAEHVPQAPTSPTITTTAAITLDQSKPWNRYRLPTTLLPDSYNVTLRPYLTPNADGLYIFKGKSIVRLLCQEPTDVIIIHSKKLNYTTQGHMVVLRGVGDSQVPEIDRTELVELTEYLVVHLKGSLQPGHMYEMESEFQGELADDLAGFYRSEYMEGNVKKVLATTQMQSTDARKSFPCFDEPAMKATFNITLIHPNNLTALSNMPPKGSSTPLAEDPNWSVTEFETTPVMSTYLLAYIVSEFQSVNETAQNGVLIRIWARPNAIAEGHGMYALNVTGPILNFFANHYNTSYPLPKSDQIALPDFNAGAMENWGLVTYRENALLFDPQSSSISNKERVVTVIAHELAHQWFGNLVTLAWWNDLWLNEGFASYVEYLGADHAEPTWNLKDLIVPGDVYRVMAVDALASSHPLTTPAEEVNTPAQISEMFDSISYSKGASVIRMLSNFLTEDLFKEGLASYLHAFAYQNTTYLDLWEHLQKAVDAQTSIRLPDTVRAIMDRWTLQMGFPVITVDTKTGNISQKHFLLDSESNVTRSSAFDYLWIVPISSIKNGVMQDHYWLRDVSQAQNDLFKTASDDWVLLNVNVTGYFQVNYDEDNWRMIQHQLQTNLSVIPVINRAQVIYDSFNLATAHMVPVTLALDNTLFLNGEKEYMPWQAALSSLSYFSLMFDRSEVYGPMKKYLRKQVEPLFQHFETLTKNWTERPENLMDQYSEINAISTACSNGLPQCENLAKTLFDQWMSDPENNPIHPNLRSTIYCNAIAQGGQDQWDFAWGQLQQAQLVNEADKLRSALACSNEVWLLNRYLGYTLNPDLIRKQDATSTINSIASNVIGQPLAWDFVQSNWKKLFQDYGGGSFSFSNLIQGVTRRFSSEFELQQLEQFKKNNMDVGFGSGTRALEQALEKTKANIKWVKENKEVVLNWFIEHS
Nature of the series: Enzymatic inhibition assay against APN in vitro (L-Leu-p-nitroanilide substrate). The class given is biochemical. The note with it: soluble APN from porcine kidney microsomal, 37 °C, 30 min; triplicate, mean ± SD. On the procedure: The enzymatic inhibitory activities of target compounds were evaluated using L-Leu-p-nitroanilide (Sigma-Aldrich, St. Louis, MO, USA) as substrate and soluble APN from porcine kidney microsomal (Enzo Life Sciences, Farmingdale, NY, USA) as enzyme. Firstly, the substrate was dissolved in DMSO to a concentration of 16 mmol/L and the enzyme was dissolved in buffer solution of 50 mM PBS (pH = 7.2) for a concentration of 0.15 IU/L. Subsequently, inhibitors (40 μL) and PBS (145 μL) were added into the 96-well plates, followed by the addition of substrate (5 μL) and enzyme (10 μL). After incubation at 37 °C for 30 min, the absorbance values were measured at 405 nm with a plate reader (Varioskan, Thermo Fisher Scientific, Waltham, MA, USA).

In turn, `CC(=O)N1N=C(c2ccc(Cl)cc2Cl)CC1c1ccccc1OCC(=O)NO` (stereo not shown) [Compound 14l, 2-(2-(1-Acetyl-3-(2,4-dichlorophenyl)-4,5-dihydro-1H-pyrazol-5-yl)phenoxy)-N-hydroxyacetamide] registered a melting point of 128 to 130 °C. For the same molecule, it took 580 ± 40 nM to reach half-maximal inhibition in series [1] (IC50).

As to `NC(=O)N1N=C(c2ccccc2I)CC1c1cccc(Br)c1OCC(=O)NO` (stereo not shown) [Compound 14r, 5-(3-Bromo-2-(2-(hydroxyamino)-2-oxoethoxy)phenyl)-3-(2-iodophenyl)-4,5-dihydro-1H-pyrazole-1-carboxamide], the melting point is 140 to 142 °C. For the same molecule, in series [1], it took 3400 ± 300 nM to reach half-maximal inhibition (IC50).

Molecule `CC(=O)N1N=C(c2ccccc2I)CC1c1c(Cl)cccc1OCC(=O)NO` (stereo not shown) [Compound 14y, 2-(2-(1-Acetyl-3-(2-iodophenyl)-4,5-dihydro-1H-pyrazol-5-yl)-3-chlorophenoxy)-N-hydroxyacetamide] displayed a melting point of 168 to 170 °C. The molecule also had an IC50 in series [1] of 23 ± 1 nM.

The molecule `CC(=O)N1N=C(c2cccc3ccccc23)CC1c1ccccc1OCC(=O)NO` (stereo not shown) [Compound 14p, 2-(2-(1-Acetyl-3-(naphthalen-1-yl)-4,5-dihydro-1H-pyrazol-5-yl)phenoxy)-N-hydroxy acetamide] yielded a melting point of 198 to 200 °C. This molecule came in with an IC50 in series [1] of 310 ± 20 nM.

Molecule `CC(=O)N1N=C(c2ccccc2OCc2ccccc2)CC1c1ccccc1OCC(=O)NO` (stereo not shown) [Compound 14aa, 2-(2-(1-Acetyl-3-(2-(benzyloxy)phenyl)-4,5-dihydro-1H-pyrazol-5-yl)phenoxy)-N-hydroxyacetamide] returned a melting point of 162 to 164 °C. Moreover, in series [1], 17 ± 1 nM corresponded to half-maximal inhibition (IC50).

`CC(=O)N1N=C(c2ccccc2Br)CC1c1ccccc1OCC(=O)NO` (stereo not shown) [Compound 14a, 2-(2-(1-Acetyl-3-(2-bromophenyl)-4,5-dihydro-1H-pyrazol-5-yl)phenoxy)-N-hydroxy acetamide] gave a melting point of 162 to 164 °C. In series [1], this molecule displayed an IC50 of 46 ± 3 nM.

Molecule `NC(=O)N1N=C(c2ccccc2I)CC1c1c(Br)cccc1OCC(=O)NO` (stereo not shown) [Compound 14x, 5-(2-Bromo-6-(2-(hydroxyamino)-2-oxoethoxy)phenyl)-3-(2-iodophenyl)-4,5-dihydro-1H-pyrazole-1-carboxamide] returned a melting point of 132 to 134 °C. The same molecule had an IC50 in series [1] of 90 ± 5 nM.

`NC(=O)N1N=C(c2ccccc2)CC1c1ccccc1OCC(=O)NO` (stereo not shown) [Compound 13b, reference compound]: the IC50 in series [1] came out at 160 ± 10 nM.

`CC(=O)N1N=C(c2ccccc2F)CC1c1ccccc1OCC(=O)NO` (stereo not shown) [Compound 14g, 2-(2-(1-Acetyl-3-(2-fluorophenyl)-4,5-dihydro-1H-pyrazol-5-yl)phenoxy)-N-hydroxy acetamide] displayed a melting point of 176 to 178 °C. Also, in series [1], the IC50 stood at 250 ± 10 nM.

`NC(=O)N1N=C(c2ccccc2OCc2ccccc2)CC1c1ccccc1OCC(=O)NO` (stereo not shown) [Compound 14bb, 3-(2-(Benzyloxy)phenyl)-5-(2-(2-(hydroxyamino)-2-oxoethoxy)phenyl)-4,5-dihydro-1H-pyrazole-1-carboxamide] came in with a melting point of 176 to 178 °C. This molecule registered an IC50 in series [1] of 15 ± 1 nM.

Turning to `CC(=O)N1N=C(c2cccc(Br)c2)CC1c1ccccc1OCC(=O)NO` (stereo not shown) [Compound 14b, 2-(2-(1-Acetyl-3-(3-bromophenyl)-4,5-dihydro-1H-pyrazol-5-yl)phenoxy)-N-hydroxy acetamide], the melting point lay in the range of 152 to 154 °C. In series [1], this molecule had an IC50 of 320 ± 30 nM.

Molecule `COc1ccccc1C1=NN(C(C)=O)C(c2ccccc2OCC(=O)NO)C1` (stereo not shown) [Compound 14d, 2-(2-(1-Acetyl-3-(2-methoxyphenyl)-4,5-dihydro-1H-pyrazol-5-yl)phenoxy)-N-hydroxy acetamide] showed a melting point of 170 to 172 °C. Besides, in series [1], the midpoint of inhibition, the IC50, lay at 320 ± 10 nM.

In turn, `COc1cccc(C2=NN(C(C)=O)C(c3ccccc3OCC(=O)NO)C2)c1` (stereo not shown) [Compound 14e, 2-(2-(1-Acetyl-3-(3-methoxyphenyl)-4,5-dihydro-1H-pyrazol-5-yl)phenoxy)-N-hydroxy acetamide] showed a melting point of 170 to 172 °C. This molecule returned an IC50 in series [1] of 370 nM.

The molecule `CC(=O)N1N=C(c2ccccc2I)CC1c1ccccc1OCC(=O)NO` (stereo not shown) [Compound 14i, 2-(2-(1-Acetyl-3-(2-iodophenyl)-4,5-dihydro-1H-pyrazol-5-yl)phenoxy)-N-hydroxy acetamide] displayed a melting point of 174 to 176 °C. The same molecule returned an IC50 in series [1] of 15 ± 1 nM.

`COc1cccc(OC)c1C1=NN(C(N)=O)C(c2ccccc2OCC(=O)NO)C1` (stereo not shown) [Compound 14n, 3-(2,6-Dimethoxyphenyl)-5-(2-(2-(hydroxyamino)-2-oxoethoxy)phenyl)-4,5-dihydro-1H-pyrazole-1-carboxamide] yielded a melting point of 212 to 214 °C. In series [1], the IC50 is 440 ± 30 nM.

`NC(=O)N1N=C(c2ccccc2OCc2ccccc2Br)CC1c1ccccc1OCC(=O)NO` (stereo not shown) [Compound 14dd, 3-(2-((2-Bromobenzyl)oxy)phenyl)-5-(2-(2-(hydroxyamino)-2-oxoethoxy)phenyl)-4,5-dihydro-1H-pyrazole-1-carboxamide] yielded a melting point of 92 to 94 °C. This molecule also came in with an IC50 in series [1] of 230 ± 10 nM.

The molecule `NC(=O)N1N=C(c2c(Cl)cccc2Cl)CC1c1ccccc1OCC(=O)NO` (stereo not shown) [Compound 13c, reference compound] showed an IC50 in series [1] of 59 ± 2 nM.

For the molecule `CC(=O)N1N=C(c2ccccc2OCc2ccc(Br)cc2)CC1c1ccccc1OCC(=O)NO` (stereo not shown) [Compound 14gg, 2-(2-(1-Acetyl-3-(2-((4-bromobenzyl)oxy)phenyl)-4,5-dihydro-1H-pyrazol-5-yl)phenoxy)-N-hydroxyacetamide], the melting point was 96 to 98 °C. The molecule further yielded an IC50 in series [1] of 560 ± 40 nM.

The molecule `CC(=O)N1N=C(c2ccccc2OCc2ccccc2Br)CC1c1ccccc1OCC(=O)NO` (stereo not shown) [Compound 14cc, 2-(2-(1-Acetyl-3-(2-((2-bromobenzyl)oxy)phenyl)-4,5-dihydro-1H-pyrazol-5-yl)phenoxy)-N-hydroxyacetamide] displayed a melting point of 82 to 84 °C. Half-maximal inhibition in series [1] (IC50) was put at 68 ± 4 nM.

As to `NC(=O)N1N=C(c2ccccc2I)CC1c1ccccc1OCC(=O)NO` (stereo not shown) [Compound 14j, 5-(2-(2-(Hydroxyamino)-2-oxoethoxy)phenyl)-3-(2-iodophenyl)-4,5-dihydro-1H-pyrazole-1-carboxamide], the melting point lay within 164 to 166 °C. Also, the IC50 in series [1] was 44 ± 3 nM.

`CC(=O)N1N=C(c2ccccc2OCc2cccc(Br)c2)CC1c1ccccc1OCC(=O)NO` (stereo not shown) [Compound 14ee, 2-(2-(1-Acetyl-3-(2-((3-bromobenzyl)oxy)phenyl)-4,5-dihydro-1H-pyrazol-5-yl)phenoxy)-N-hydroxyacetamide] gave a melting point of 164 to 166 °C. In series [1], this molecule displayed an IC50 of 31 ± 2 nM.

Take `NC(=O)N1N=C(c2ccccc2OCc2cccc(Br)c2)CC1c1ccccc1OCC(=O)NO` (stereo not shown) [Compound 14ff, 3-(2-((3-Bromobenzyl)oxy)phenyl)-5-(2-(2-(hydroxyamino)-2-oxoethoxy)phenyl)-4,5-dihydro-1H-pyrazole-1-carboxamide]: the melting point lay in the range of 120 to 122 °C. The IC50 in series [1] stood at 58 ± 3 nM.

`NC(=O)N1N=C(c2ccccc2I)CC1c1c(Cl)cccc1OCC(=O)NO` (stereo not shown) [Compound 14z, 5-(2-Chloro-6-(2-(hydroxyamino)-2-oxoethoxy)phenyl)-3-(2-iodophenyl)-4,5-dihydro-1H-pyrazole-1-carboxamide] returned a melting point of 190 to 192 °C. Besides, the half-inhibitory concentration (IC50) in series [1] was found to be 70 ± 3 nM.

`CC(=O)N1N=C(c2ccccc2I)CC1c1ccc(Br)cc1OCC(=O)NO` (stereo not shown) [Compound 14s, 2-(2-(1-Acetyl-3-(2-iodophenyl)-4,5-dihydro-1H-pyrazol-5-yl)-5-bromophenoxy)-N-hydroxyacetamide] returned a melting point of 168 to 170 °C. In series [1], the midpoint of inhibition, the IC50, lay at 2100 ± 200 nM.

For `CC(=O)N1N=C(c2ccccc2I)CC1c1cccc(Br)c1OCC(=O)NO` (stereo not shown) [Compound 14q, 2-(2-(1-Acetyl-3-(2-iodophenyl)-4,5-dihydro-1H-pyrazol-5-yl)-6-bromophenoxy)-N-hydroxyacetamide], the melting point lay in the range of 96 to 98 °C. The molecule further displayed an IC50 in series [1] of 3500 ± 200 nM.

As to `CC(=O)N1N=C(c2ccccc2)CC1c1ccccc1OCC(=O)NO` (stereo not shown) [Compound 13a, reference compound], in series [1], inhibition was half-maximal at 320 ± 10 nM (IC50).

Source of the values: PMC9736874, “Development of Hydroxamate Derivatives Containing a Pyrazoline Moiety as APN Inhibitors to Overcome Angiogenesis” (Molecules, 2022).
